Source: PubChem BioAssay (NCI)
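Grown in 96-well plates, cells were treated for 48 hours with each compound at five concentrations. Insufficient inhibition: endpoint recorded as highest concentration tested. TGI: concentration producing complete growth inhibition.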

What was measured:
Assay in all cases: inhibition of tumour cell growth, NCI panel, 48 h
786-0 renal = tested on: 786-0 renal
A498 renal = tested on: A498 renal
A549 NSCLC = tested on: A549 NSCLC
ACHN renal = tested on: ACHN renal
BT-549 breast = tested on: BT-549 breast
CAKI-1 renal = tested on: CAKI-1 renal
CCRF-CEM leukemia = tested on: CCRF-CEM leukemia
COLO 205 colon = tested on: COLO 205 colon
DU-145 prostate = tested on: DU-145 prostate
EKVX NSCLC = tested on: EKVX NSCLC
HCC-2998 colon = tested on: HCC-2998 colon
HCT-116 colon = tested on: HCT-116 colon
HCT-15 colon = tested on: HCT-15 colon
HL-60(TB) leukemia = tested on: HL-60(TB) leukemia
HOP-62 NSCLC = tested on: HOP-62 NSCLC
HOP-92 NSCLC = tested on: HOP-92 NSCLC
HS 578T breast = tested on: HS 578T breast
HT29 colon = tested on: HT29 colon
IGROV1 ovarian = tested on: IGROV1 ovarian
K-562 leukemia = tested on: K-562 leukemia
KM12 colon = tested on: KM12 colon
LOX IMVI melanoma = tested on: LOX IMVI melanoma
M14 melanoma = tested on: M14 melanoma
MCF7 breast = tested on: MCF7 breast
MDA-MB-231 breast = tested on: MDA-MB-231 breast
MDA-MB-435 = tested on: MDA-MB-435
MDA-N = tested on: MDA-N
MOLT-4 leukemia = tested on: MOLT-4 leukemia
NCI-H226 lung = tested on: NCI-H226 lung
NCI-H23 lung = tested on: NCI-H23 lung
NCI-H460 lung = tested on: NCI-H460 lung
NCI-H522 lung = tested on: NCI-H522 lung
NCI/ADR-RES ovarian = tested on: NCI/ADR-RES ovarian
OVCAR-3 ovarian = tested on: OVCAR-3 ovarian
OVCAR-4 ovarian = tested on: OVCAR-4 ovarian
OVCAR-5 ovarian = tested on: OVCAR-5 ovarian
OVCAR-8 ovarian = tested on: OVCAR-8 ovarian
PC-3 prostate = tested on: PC-3 prostate
RPMI-8226 leukemia = tested on: RPMI-8226 leukemia
RXF 393 renal = tested on: RXF 393 renal
SF-268 CNS = tested on: SF-268 CNS
SF-295 CNS = tested on: SF-295 CNS
SF-539 CNS = tested on: SF-539 CNS
SK-MEL-2 melanoma = tested on: SK-MEL-2 melanoma
SK-MEL-28 melanoma = tested on: SK-MEL-28 melanoma
SK-MEL-5 melanoma = tested on: SK-MEL-5 melanoma
SK-OV-3 ovarian = tested on: SK-OV-3 ovarian
SN12C renal = tested on: SN12C renal
SNB-19 CNS = tested on: SNB-19 CNS
SNB-75 CNS = tested on: SNB-75 CNS
SR leukemia = tested on: SR leukemia
SW-620 colon = tested on: SW-620 colon
T-47D breast = tested on: T-47D breast
TK-10 renal = tested on: TK-10 renal
U251 CNS = tested on: U251 CNS
UACC-257 melanoma = tested on: UACC-257 melanoma
UACC-62 melanoma = tested on: UACC-62 melanoma
UO-31 renal = tested on: UO-31 renal

For CCOC(=O)c1c(Sc2ccc([N+](=O)[O-])cc2[N+](=O)[O-])nc2c3ccccc3ccn12, the TGI (786-0 renal) was over 38.6 µM, the TGI (A498 renal) was over 100 µM and the TGI (A549 NSCLC) was over 100 µM. It also gave a TGI (ACHN renal) of over 100 µM, a TGI (BT-549 breast) of over 100 µM and a TGI (CAKI-1 renal) of over 100 µM. For the same compound, the TGI (CCRF-CEM leukemia) was over 100 µM, the TGI (COLO 205 colon) was over 100 µM and the TGI (DU-145 prostate) was over 100 µM. The TGI (EKVX NSCLC) was over 100 µM, the TGI (HCC-2998 colon) was over 100 µM and the TGI (HCT-116 colon) was over 100 µM. For the same compound, the TGI (HCT-15 colon) was over 100 µM, the TGI (HL-60(TB) leukemia) was over 100 µM and the TGI (HOP-62 NSCLC) was over 59.4 µM. The TGI (HOP-92 NSCLC) was 41.3 µM, the TGI (HS 578T breast) was over 92.3 µM and the TGI (HT29 colon) was over 100 µM. It also gave a TGI (IGROV1 ovarian) of over 31.6 µM, a TGI (K-562 leukemia) of over 100 µM and a TGI (KM12 colon) of over 100 µM. The TGI (LOX IMVI melanoma) was over 100 µM, the TGI (M14 melanoma) was over 100 µM and the TGI (MCF7 breast) was over 100 µM. It also gave a TGI (MDA-MB-231 breast) of over 100 µM, a TGI (MDA-MB-435) of over 100 µM and a TGI (MDA-N) of over 100 µM. For the same compound, the TGI (MOLT-4 leukemia) was over 100 µM, the TGI (NCI-H226 lung) was over 100 µM and the TGI (NCI-H23 lung) was over 100 µM. For the same compound, the TGI (NCI-H460 lung) was over 100 µM, the TGI (NCI-H522 lung) was over 100 µM and the TGI (NCI/ADR-RES ovarian) was over 100 µM. For the same compound, the TGI (OVCAR-3 ovarian) was over 100 µM, the TGI (OVCAR-4 ovarian) was over 100 µM and the TGI (OVCAR-5 ovarian) was over 100 µM. It also gave a TGI (OVCAR-8 ovarian) of over 100 µM, a TGI (PC-3 prostate) of over 100 µM and a TGI (RPMI-8226 leukemia) of over 100 µM. For the same compound, the TGI (RXF 393 renal) was over 92.9 µM, the TGI (SF-268 CNS) was over 100 µM and the TGI (SF-295 CNS) was over 100 µM. It also gave a TGI (SF-539 CNS) of over 94.8 µM, a TGI (SK-MEL-2 melanoma) of over 100 µM and a TGI (SK-MEL-28 melanoma) of over 100 µM. For the same compound, the TGI (SK-MEL-5 melanoma) was over 100 µM, the TGI (SK-OV-3 ovarian) was 69.7 µM and the TGI (SN12C renal) was over 100 µM. The TGI (SNB-19 CNS) was over 100 µM, the TGI (SNB-75 CNS) was over 100 µM and the TGI (SR leukemia) was over 100 µM. For the same compound, the TGI (SW-620 colon) was over 100 µM, the TGI (T-47D breast) was over 100 µM and the TGI (TK-10 renal) was over 100 µM. For the same compound, the TGI (U251 CNS) was over 100 µM, the TGI (UACC-257 melanoma) was over 100 µM and the TGI (UACC-62 melanoma) was over 65.9 µM. The TGI (UO-31 renal) was over 100 µM.

For COC1=CC(=O)c2c(c(-c3csc(C)n3)cn2C)C1=O, the TGI (786-0 renal) was over 76.7 µM, the TGI (A498 renal) was 72.6 µM and the TGI (A549 NSCLC) was over 41.6 µM. It also gave a TGI (ACHN renal) of over 71.9 µM, a TGI (BT-549 breast) of over 100 µM and a TGI (CAKI-1 renal) of over 73.5 µM. It also gave a TGI (CCRF-CEM leukemia) of over 94.4 µM, a TGI (COLO 205 colon) of over 71.1 µM and a TGI (DU-145 prostate) of over 45.9 µM. It also gave a TGI (EKVX NSCLC) of 77.9 µM, a TGI (HCC-2998 colon) of over 100 µM and a TGI (HCT-116 colon) of over 77.5 µM. For the same compound, the TGI (HCT-15 colon) was over 52.5 µM, the TGI (HL-60(TB) leukemia) was 23.9 µM and the TGI (HOP-62 NSCLC) was over 68.4 µM. It also gave a TGI (HOP-92 NSCLC) of over 100 µM, a TGI (HS 578T breast) of over 100 µM and a TGI (HT29 colon) of 91.6 µM. It also gave a TGI (IGROV1 ovarian) of 72.2 µM, a TGI (K-562 leukemia) of over 100 µM and a TGI (KM12 colon) of over 100 µM. For the same compound, the TGI (LOX IMVI melanoma) was over 100 µM, the TGI (M14 melanoma) was over 100 µM and the TGI (MCF7 breast) was over 69.5 µM. The TGI (MDA-MB-231 breast) was over 86.6 µM, the TGI (MDA-MB-435) was 26.8 µM and the TGI (MDA-N) was 35.1 µM. For the same compound, the TGI (MOLT-4 leukemia) was over 100 µM, the TGI (NCI-H226 lung) was over 100 µM and the TGI (NCI-H23 lung) was 15 µM. The TGI (NCI-H460 lung) was 19.9 µM, the TGI (NCI-H522 lung) was 91.4 µM and the TGI (NCI/ADR-RES ovarian) was over 79.1 µM. The TGI (OVCAR-3 ovarian) was 36.4 µM, the TGI (OVCAR-4 ovarian) was over 100 µM and the TGI (OVCAR-5 ovarian) was over 95 µM. It also gave a TGI (OVCAR-8 ovarian) of over 94.8 µM, a TGI (PC-3 prostate) of over 68.6 µM and a TGI (RPMI-8226 leukemia) of over 19.8 µM. It also gave a TGI (RXF 393 renal) of 43.3 µM, a TGI (SF-268 CNS) of over 100 µM and a TGI (SF-295 CNS) of over 67.1 µM. It also gave a TGI (SF-539 CNS) of 54.7 µM, a TGI (SK-MEL-2 melanoma) of over 63.8 µM and a TGI (SK-MEL-28 melanoma) of over 100 µM. The TGI (SK-MEL-5 melanoma) was 4.97 µM, the TGI (SK-OV-3 ovarian) was over 100 µM and the TGI (SN12C renal) was over 68.9 µM. For the same compound, the TGI (SNB-19 CNS) was over 81.2 µM, the TGI (SNB-75 CNS) was 19 µM and the TGI (SR leukemia) was over 100 µM. It also gave a TGI (SW-620 colon) of over 100 µM, a TGI (T-47D breast) of over 64.3 µM and a TGI (TK-10 renal) of over 100 µM. For the same compound, the TGI (U251 CNS) was over 100 µM, the TGI (UACC-257 melanoma) was 32.6 µM and the TGI (UACC-62 melanoma) was 42.5 µM. For the same compound, the TGI (UO-31 renal) was over 73.4 µM.
